Measured values published in patent US9603922B2, “Modulation of NKT cell activity with antigen-loaded CD1d molecules” (VACCINEX, INC., priority 2007, dated 2017).

B1: αGalCer/sCD1d: soluble monomeric mouse β2m-CD1d, His-tagged, loaded with αGalCer (protein)
chain: IQKTPQIQVYSRHPPENGKPNILNCYVTQFHPPHIEIQMLKNGKKIPKVEMSDMSFSKDWSFYILAHTEFTPTETDTYACRVKHASMAEPKTVYWDRDMGGGGSGGSGSGGGSEAQQKNYTFRCLQMSSFANRSWSRTDSVVWLGDLQTHRWSNDSATISFTKPWSQGKLSNQQWEKLQHMFQVYRVSFTRDIQELVKMMSPKEDYPIEIQLSAGCEMYPGNASESFLHVAFQGKYVVRFWGTSWQTVPGAPSWLDLPIKVLNADQGTSATVQMLLNDTCPLFVRGLLEAGKSDLEKQEKPVAWLSSVPSSADGHRQLVCHVSGFYPKPVWVMWMRGDQEQQGTHRGDFLPNADETWYLQATLDVEAGEEAGLACRVKHSSLGGQDIILYWSSGSGGHHHHHH

Key:
Format in all cases: in vivo, mouse
liver iNKT cells = test: InvTCR downmodulation: disappearance of liver iNKT cells after single i.p. injection; settings: 20 hours after single i.p. injection; αGalCer 5 μg, sCD1d 20 μg, fusion 40 μg
Experimental: Frequency of iNKT cells was measured by flow cytometry using CD1d-Tetramer-EXTRAVIDIN®-PE and anti CD3 FITC.
Generation of CD1d tetramer. For this purpose, the soluble β2m-CD1d molecule was modified at the C-terminus by the addition of a cysteine after the stretch of histidine residues. After a mild reduction with 0.5 mM β-mercaptoethanol for 30 min at 30C and purification on a PD10 desalting column, the pure recombinant protein was biotinylated on the cystein residue by the chemical coupling of a biotin-maleimide linker (EZ-linked BM, Pierce) in 2M excess overnight at RT. The excess of linker was removed by gel filtration on a SUPERDEX™S200 column (Pharmacia Biotech). The biotinylated CD1d was loaded with αGalCer as described above and was tetramerized on EXTRAVIDIN®-PE (Sigma) and resulting complex was used at 5 μg/ml for NKT cell staining.
Isolation of liver, lung and spleen lymphocytes. Mouse livers and lungs were homogenized with 100 μm strainer and lymphocytes were isolated using a PERCOLL™ density gradient (Amersham Biosciences). After two washings, cells were either re-challenged or directly analyzed by fluorescence cytometry. Spleens were homogenized with a 70 μm strainer, debris were eliminated by spontaneous sedimentation and splenocytes were recovered by centrifugation. […]

B16 melanoma cells = test: Pretreatment and B16 melanoma lung metastasis; settings: for Lung metastasis / tumor resistance in pretreated mice: 5 i.v. pretreatments every 3 days, then 700,000 B16 cells co-injected with same agent; for Lung metastasis / tumor development in naïve mice: no pretreatment, agent co-injected with B16 cells
Experimental: FIG. 4: Sustained iNKT activation in vivo due to repeated injections of αGalCer/sCD1d prevents formation of lung metastases. Mice were treated 5 times with PBS (Control, white), αGalCer (0.4 μg, light grey), or αGalCer/sCD1d (sCD1d, 20 μg, black) and then grafted with 700,000 B16 wild type cells plus co-injection of the respective treatment. 2 naive groups were included that had no pretreatment and got only tumor cell graft+co-injection of αGalCer (striped grey) or αGalCer/sCD1d (sCD1d, dark striped grey) respectively. Lung metastases formation was analysed 2 weeks after graft with the ImageJ k-means clustering program and results are expressed as percent of black metastatic surface over total lung surface. P values for αGalCer/sCD1d pretreated and naive+αGalCer groups compared to control *P<0.04, and compared to αGalCer pretreated group *P<0.02.
Quantification of lung metastasis. Metastatic nodule surface area was measured on 2560×1920 pixels photographs of the whole organs, taken on an Zeiss STEMI SV11 dissection microscope (Carl Zeiss, Jena, Germany) equipped with a PROGRES-C10plus Color Camera (Jenoptik, Jena, Germany). Each image was analyzed with the ImageJ program (rsb.info.nih.gov/ij/) using a k-means clustering algorithm (plugin available on ij-plugins.sourceforge.net). Images were segmented into 9 segments cluster tolerance 1×10−4, randomization seed: 48) and the appropriate segments were selected based on the color of the metastasis reaching the surface of the organ. The area of the sum of selected color segments was expressed as percentage of the area occupied by the lungs. Both sides of the lung were analyzed. This method takes into account both the number and the size of the tumor nodules. Since nodules are often heterogenous the percentage of metastatic lung surface area is a more sensitive measure of tumor growth than just counting tumor nodules.
This is most likely due to the anergic state of iNKT cells induced by free αGalCer. In contrast, in naïve mice, opposite results were obtained. […] The key finding is that multiple prior injections of αGalCer loaded recombinant CD1d molecules but not of free αGalCer confers resistance to tumor development.

[1] = test system: H-2Kb/OVA specific CD8 T cells; test: Adjuvant effect on H-2Kb/OVA specific CD8 T cells upon ovalbumin immunization; settings: for Frequency of Kb/OVA specific CTLs in the spleens, of total CD8: after OVA peptide boost, 5 days in vitro culture without further stimulation; for Frequency of specific T cells: after boost and in vitro re-stimulation with same stimuli; for H-2Kb/OVA257-264 tetramer CD8 double positive T cells after priming: priming with 200 μg ovalbumin plus adjuvant
Experimental: FIG. 8: αGalCer loaded sCD1d acts as a strong adjuvant for the expansion of antigen-specific T cells upon active immunization. a kinetics of expansion of H-2K^b/OVA specific CTLs. Mice were primed with 200 μg ovalbumin either as such (i.v.) or with MONTANIDE™ adjuvant (3:7 ratio, s.c.) or with 1 μg αGalCer or 20 μg αGalCer/sCD1d (i.v.). Mice were bled every 5-7 days and PBMC were stained with H-2K^b/oVA tetramer+anti-CD8. Results were expressed as tetramer+ and CD8+ […] as a percentage of total CD8+ T cells. Mice were boosted with OVA peptide (20 μg) on day 22 employing the same adjuvants and route of injection as for primary immunization. b Ten days later, mice were sacrificed and splenocytes were cultured another five days either with no stimuli or with the same stimuli and adjuvants as for the in vivo boost. Frequency of OVA specific T cells was measured as in a. c The presence of mature DC in the same cultures as in b was analyzed by surface staining with anti CD11c and anti CD40 antibodies.
Together with active OVA immunization: An adjuvant effect has previously been attributed to free αGalCer and its potential use in vaccination has been proposed (Silk, J. D., et al. J Clin Invest 114:1800-1811 (2004)). […] In this context, the adjuvant effect on the expansion of antigen-specific T cells in the model of C57 BL/6 mice immunized with ovalbumin was investigated (Hermans, I. F., et al. J Immunol 171:5140-5147 (2003)). […] Furthermore, after boosting these same mice with OVA peptide in the same adjuvants in vivo and then 5 days in vitro culture without further stimulation, the frequency of K^b/OVA specific CTLs in the spleens reached up to 45% of total CD8 in mice that received a boost of OVA peptide with αGalCer/sCD1d, whereas the frequency was 12% in mice boosted with peptide and αGalCer alone (FIG. 8b). A further increase could be obtained by in vitro re-stimulation with the same respective stimuli and the frequency of specific T cells reached close to 70% in both αGalCer and αGalCer/sCD1d-treated mice (FIG. 8b).

Row | Molecule | inv TCR downmodulation / disappearance of liver iNKT cells (liver iNKT cells) | Lung metastasis / tumor resistance in pretreated mice (B16 melanoma cells) | Lung metastasis / tumor development in naïve mice (B16 melanoma cells) | Frequency of Kb/OVA specific CTLs in the spleens, of total CD8 [1] | Frequency of specific T cells [1] [%] | H-2Kb/OVA257-264 tetramer CD8 double positive T cells after priming [1]
1 | CCCCCCCCCCCCCCCCCCCCCCCCCC(=O)N[C@@H](CO[C@H]1O[C@H](CO)[C@H](O)[C@H](O)[C@H]1O)[C@H](O)[C@H](O)CCCCCCCCCCCCCC [αGalCer, α-galactosylceramide, reference compound] | inv TCR downmodulation occurred | not able to block lung metastasis | completely blocked tumor development | 12% | ~70 | no H-2K^b/OVA257-264 tetramer CD8 double positive T cells could be detected
2 | B1 | transient disappearance of liver iNKT cells | rendered them resistant to B16 melanoma cells | had no effect | up to 45% | ~70 | could be detected
